As a reminder, the IC50 is the concentration that gives 50% inhibition. Low readings indicate higher potency, high ones lower potency. What is called Inhibition is the share of the control response that was lost under treatment.

Changes are numbered by the printed parent chain.

In assay [1] the target is T1, GlyT2 T512A mutant (Homo sapiens, UniProt Q9Y345, T512A).
T1 sequence (Q9Y345 1-797 T512A): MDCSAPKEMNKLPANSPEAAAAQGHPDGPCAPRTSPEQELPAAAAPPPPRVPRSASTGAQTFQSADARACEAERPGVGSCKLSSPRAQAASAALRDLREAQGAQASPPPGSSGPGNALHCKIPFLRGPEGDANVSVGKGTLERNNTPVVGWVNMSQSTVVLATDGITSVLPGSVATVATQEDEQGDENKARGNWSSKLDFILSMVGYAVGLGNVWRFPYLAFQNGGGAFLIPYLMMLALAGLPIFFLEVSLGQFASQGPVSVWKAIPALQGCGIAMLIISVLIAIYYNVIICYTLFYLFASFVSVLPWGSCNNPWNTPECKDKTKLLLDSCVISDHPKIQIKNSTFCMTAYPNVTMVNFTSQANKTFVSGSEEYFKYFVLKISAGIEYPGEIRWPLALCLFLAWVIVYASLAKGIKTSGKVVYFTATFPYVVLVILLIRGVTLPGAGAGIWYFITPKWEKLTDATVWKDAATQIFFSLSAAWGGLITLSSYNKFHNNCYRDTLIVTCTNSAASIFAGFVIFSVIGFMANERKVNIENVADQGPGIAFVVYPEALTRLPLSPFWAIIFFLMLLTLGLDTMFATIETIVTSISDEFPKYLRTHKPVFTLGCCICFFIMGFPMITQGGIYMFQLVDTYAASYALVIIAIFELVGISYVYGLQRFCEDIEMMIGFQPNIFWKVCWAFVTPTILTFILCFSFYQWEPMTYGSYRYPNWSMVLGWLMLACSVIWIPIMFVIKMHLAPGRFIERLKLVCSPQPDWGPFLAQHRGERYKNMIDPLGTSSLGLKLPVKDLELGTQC
Put plainly: Inhibitor concentration–responses on glycine transport currents, two-electrode voltage clamp. Set-up: expressed in transfected cells; host or cells: Xenopus laevis oocytes injected with mutant RNA (pOTV vector). The settings on record: for IC50: T512A GlyT2 in Xenopus laevis oocytes. The class given is cell-based. The method, then:
(§1) Because of the slowly reversible nature of the compounds tested, inhibitor concentration–responses were performed cumulatively. An EC50 concentration of glycine was applied until a stable transport current was reached. EC50 concentrations of glycine were used to produce reliable currents for each transporter, and as the inhibitors are non-competitive, application of varying glycine concentrations is unlikely to affect their activity. Increasing concentrations of inhibitors were co-applied with glycine with each concentration producing a distinct plateau before the subsequent concentration was applied. Inhibitor concentration–responses were limited to a maximum concentration of 3 µM to mitigate the risk of changes to the free drug concentration because of micelle formation. Currents after the plateau of each inhibitor concentration were normalized to the current produced by application of glycine alone and fit using the method of least squares: Y=Bottom+(Top−Bottom)/(1+10^[X−LogIC50]), where X is log [inhibitor], Y is current normalized to glycine in the absence of inhibitor, and Top and Bottom are the maximal and minimal plateaus, respectively. The method of least squares was constrained to have the bottom value >0 and the hill slope as −1, enabling the calculation of IC50 values and the extent of inhibition produced by the maximal concentration applied.
(§2) IC50 values are presented as the mean and 95% confidence interval, whereas inhibition values are presented as the mean ± SEM. Data sets are n ≥ 5 from two batches of oocytes.
For orientation: In two-electrode clamp one electrode senses voltage and the other passes current.

Assay [2] addresses T2, GlyT2 Y430F mutant (Homo sapiens, UniProt Q9Y345, Y430F).
T2 sequence (Q9Y345 1-797 Y430F): T1 sequence (Q9Y345 1-797 T512A) with Y430F, A512T
Described as above. The class given is cell-based. The settings on record: for IC50: Y430F GlyT2 in Xenopus laevis oocytes. Also on record: expressed in transfected cells; host or cells: Xenopus laevis oocytes injected with mutant RNA (pOTV vector). Here is the method: as §1, §2

Turning to `CCCCCCCC/C=C\CCCCCCCC(=O)O[C@H](CC(=O)[O-])C[N+](C)(C)C` [Oleoyl-L-Carnitine, oleoyl-L-carnitine], the 50% inhibitory concentration (IC50) in assay [1] (95% CI could not be fit) was 1700 nM; in assay [2], 190 nM. The “Inhibition at 1 µM (column head 3 μM, footnote b)” value was 44.1 ± 2.8^b % in assay [1] (T512A, 1 µM) and 71.0 ± 3.3^*b % in assay [2] (Y430F, 1 µM).
As to `CCCCCCCC/C=C\CCCCCCCC(=O)N[C@@H](CC(C)C)C(=O)O` [Oleoyl-L-Leucine, oleoyl-L-leucine], the values for the half-maximal inhibitory concentration (IC50) in assay [1] and in assay [2] were 549 nM and 203 nM, respectively. For the same compound, the entries for the “Inhibition at 3 μM” value in assay [1] (T512A) and in assay [2] (Y430F) were 50.7 ± 5.7 % and 76.7 ± 2.8%, respectively.
As to `CCCCCCCC/C=C\CCCCCCCC(=O)N[C@@H](CCCCN)C(=O)O` [Oleoyl-L-Lysine, oleoyl-L-lysine], the figures for the IC50 in assay [1] and in assay [2] were 679 nM and 123 nM, respectively. Besides, the “Inhibition at 3 μM” value was 68.0 ± 1.7 % in assay [1] (T512A) and 92.9 ± 1.7% in assay [2] (Y430F).
The matching figures for `CCCCCCCC/C=C\CCCCCCCC(=O)N[C@@H](Cc1c[nH]c2ccccc12)C(=O)O` [Oleoyl-L-Tryptophan, oleoyl-L-tryptophan]: 85 nM, 125 nM, 74.4 ± 4.5% and 84.5 ± 3.6%.

These data come from article PMC9873984, “Membrane cholesterol regulates inhibition and substrate transport by the glycine transporter, GlyT2” (Life Science Alliance, 2023).
